Columns and labels:
[1] = biological target: T1, N-formyl peptide receptor 2 (Homo sapiens, UniProt P25090); assay: Agonist activity at FPR2 (unknown origin) expressed in CHO cells by cAMP assay; format: functional, cell-based
T1 sequence (P25090 whole entry): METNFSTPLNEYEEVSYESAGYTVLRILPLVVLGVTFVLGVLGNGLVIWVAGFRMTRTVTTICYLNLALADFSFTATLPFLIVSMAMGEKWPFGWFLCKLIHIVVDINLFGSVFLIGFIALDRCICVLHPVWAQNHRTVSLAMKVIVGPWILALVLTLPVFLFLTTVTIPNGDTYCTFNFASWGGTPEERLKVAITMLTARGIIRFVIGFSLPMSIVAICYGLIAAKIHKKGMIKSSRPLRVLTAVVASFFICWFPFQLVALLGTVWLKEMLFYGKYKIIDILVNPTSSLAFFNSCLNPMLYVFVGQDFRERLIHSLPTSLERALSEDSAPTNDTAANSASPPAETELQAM

fMet-Leu-Phe receptor [2] = biological target: T2, fMet-Leu-Phe receptor (Homo sapiens, UniProt P21462); assay: Agonist activity at FPR1 (unknown origin) in HEK293 cells; format: functional, cell-based
T2 sequence (P21462 whole entry): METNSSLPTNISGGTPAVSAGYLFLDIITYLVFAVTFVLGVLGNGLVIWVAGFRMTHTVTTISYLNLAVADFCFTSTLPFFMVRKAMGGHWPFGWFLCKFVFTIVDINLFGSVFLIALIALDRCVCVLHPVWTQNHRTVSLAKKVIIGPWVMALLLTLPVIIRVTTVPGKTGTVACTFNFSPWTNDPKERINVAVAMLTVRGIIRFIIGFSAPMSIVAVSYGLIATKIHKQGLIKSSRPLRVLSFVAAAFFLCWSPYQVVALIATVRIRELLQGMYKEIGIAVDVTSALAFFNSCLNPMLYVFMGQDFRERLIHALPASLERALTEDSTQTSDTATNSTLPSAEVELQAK

[3] = biological target: T1, N-formyl peptide receptor 2; assay: Agonist activity at FPR2 (unknown origin) in HEK293 cells; format: functional, cell-based
fMet-Leu-Phe receptor [4] = biological target: T2, fMet-Leu-Phe receptor; assay: Agonist activity at human FPR1 expressed in HL-60 cells assessed as increase in calcium mobilization by FLIPR analysis; format: functional, cell-based
[5] = biological target: T1, N-formyl peptide receptor 2; assay: Agonist activity at human FPR2 expressed in HL-60 cells assessed as increase in calcium mobilization by FLIPR analysis; format: functional, cell-based
Homo sapiens = organism: Homo sapiens; assay: Selectivity ratio of EC50 for agonist activity at human FPR1 transfected in CHO cells to EC50 for agonist activity at human FPR2 transfected in CHO cells; format: cell-based
[6] = biological target: T3, Formyl peptide receptor 2 (Mus musculus, UniProt O88536); assay: Agonist activity at mouse FPR2
T3 sequence (O88536 whole entry): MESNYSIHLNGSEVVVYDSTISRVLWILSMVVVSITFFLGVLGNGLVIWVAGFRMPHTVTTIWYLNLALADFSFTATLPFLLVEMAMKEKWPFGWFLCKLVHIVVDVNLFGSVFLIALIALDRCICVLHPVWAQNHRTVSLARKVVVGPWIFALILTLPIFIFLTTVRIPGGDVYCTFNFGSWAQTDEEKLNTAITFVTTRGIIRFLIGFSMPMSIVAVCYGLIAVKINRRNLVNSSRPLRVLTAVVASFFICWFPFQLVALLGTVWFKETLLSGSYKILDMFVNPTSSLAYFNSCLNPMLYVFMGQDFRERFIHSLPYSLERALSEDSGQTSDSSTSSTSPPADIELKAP

[7] = biological target: T1, N-formyl peptide receptor 2; assay: Agonist activity at FPR2 (unknown origin) transfected in CHO cells by cAMP assay; format: functional, cell-based
[8] = biological target: T1, N-formyl peptide receptor 2; assay: Agonist activity at human FPR2; format: functional
fMet-Leu-Phe receptor [9] = biological target: T2, fMet-Leu-Phe receptor; assay: Agonist activity at human FPR1 transfected in CHO cells by cAMP assay; format: functional, cell-based
[10] = biological target: T1, N-formyl peptide receptor 2; assay: Agonist activity at human FPR2 expressed in HL-60 cells assessed as inhibition of WKYMVM-induced calcium mobilization; format: functional, cell-based
fMet-Leu-Phe receptor [11] = biological target: T4, fMet-Leu-Phe receptor (Mus musculus, UniProt P33766); assay: Agonist activity at mouse FPR1; format: functional
T4 sequence (P33766 whole entry): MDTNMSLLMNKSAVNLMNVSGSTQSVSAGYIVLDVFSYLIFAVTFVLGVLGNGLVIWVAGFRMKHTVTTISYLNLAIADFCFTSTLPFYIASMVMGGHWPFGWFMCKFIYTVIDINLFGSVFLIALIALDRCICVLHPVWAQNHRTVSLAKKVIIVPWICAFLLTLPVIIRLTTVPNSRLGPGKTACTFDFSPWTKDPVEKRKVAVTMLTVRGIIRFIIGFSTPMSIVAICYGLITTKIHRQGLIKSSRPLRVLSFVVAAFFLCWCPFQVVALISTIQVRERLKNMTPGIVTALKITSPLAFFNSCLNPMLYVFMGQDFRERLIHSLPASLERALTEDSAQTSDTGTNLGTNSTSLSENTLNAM

COc1ccc(NC(=O)N[C@@H]2CCCN(c3ccc(-c4ccccc4C(N)=O)cc3)C2=O)cc1
EC50 [1]: 5 nM

COc1ccc(NC(=O)CSc2nc3cc(OC)ccc3[nH]2)cc1
EC50 (fMet-Leu-Phe receptor [2]): 3700 nM | EC50 [3]: 15 nM

COc1ccc([C@@H]2COC(=O)[C@@H]2NC(=O)Nc2ccc(Cl)cc2)cc1 (racemic)
EC50 [1]: 0.25 nM

COc1cccc(-c2cc(C#N)c(=O)n(CC(=O)Nc3ccc(Br)cc3)c2C)c1
EC50 (fMet-Leu-Phe receptor [4]; hl-60): 1600 nM | EC50 ([5]; hl-60): 120 nM

CC(=O)CCCCc1nc(NC(=O)OCc2ccccc2C)co1
EC50 [3]: 0.3 nM

NC(=O)c1ccccc1-c1ccc(N2CCC[C@H](NC(=O)Nc3ccc(Cl)cc3)C2=O)cc1
EC50 [1]: 5 nM

COc1cc(F)c(-c2c(NC(=O)c3ccc(OC(F)F)cc3)c(=O)n(-c3ccccc3)n2C)c(F)c1
Ratio EC50 (Homo sapiens): 200

CS(=O)(=O)Nc1ccccc1-c1ccc(N2CC[C@@H](NC(=O)Nc3ccc(Cl)cc3F)C2=O)c(F)c1F
Ratio EC50 (Homo sapiens): 340

COc1ccc(C2(CNC(=O)[C@@H](Cc3c[nH]c4ccccc34)NC(=O)Nc3ccc([N+](=O)[O-])cc3)CCCCC2)nc1
EC50 (fMet-Leu-Phe receptor [4]): 23 nM

CSc1ccc(NC(=O)Nc2ccc3c(c2)C(=O)N(CCCN)C(C)C3)cc1 (centres undefined)
EC50 [6]: 15 nM

CCOC(=O)[C@H]1C2CCC([C@H]1C(=O)Nc1ccc(Br)cc1)C21CC1 (some centres undefined)
EC50 [7]: 1400 nM

CS(=O)(=O)c1ccccc1-c1ccc(N2CC[C@@H](NC(=O)Nc3ccc(Cl)cc3F)C2=O)c(F)c1F
Ratio EC50 (Homo sapiens): 66

CP(C)(=O)c1ccccc1-c1ccc(N2CC[C@@H](NC(=O)Nc3ccc(Cl)cc3F)C2=O)c(F)c1F
Ratio EC50 (Homo sapiens): 490

O=C(NCCCCN1CCCCC1)[C@@H]1C2CCC([C@H]1C(=O)Nc1ccc(Br)cc1)C21CC1 (some centres undefined)
EC50 [3]: 0.07 nM

COc1cc(F)c(-n2c(C3CC(N)C3)cnc2NC(=O)c2ccc(OC(F)F)cc2)c(F)c1 (centres undefined)
EC50 (fMet-Leu-Phe receptor [2]; hek293): 5400 nM | EC50 ([3]; hek293): 4 nM

Cc1ccc(NC(=O)N[C@H]2CCCN(c3ccc(-c4ccccc4C(N)=O)cc3)C2=O)cc1
EC50 [1]: 40 nM

COc1ccc(CC(Cc2ccc3c(c2)OCO3)NC(=O)Nc2ccc(Cl)cc2)cc1 (centres undefined)
EC50 (fMet-Leu-Phe receptor [4]): 110 nM

O=C(CN1CCN(c2ccc(Cl)cc2)CC1)Nc1ccc(Br)cc1
EC50 [3]: 2100 nM

CC/C=C\C[C@@H](O)/C=C/C=C\C[C@@H](O)/C=C/C=C/C=C\[C@@H](O)CCC(=O)O
EC50 [8]: 1.2 nM

CCP(=O)(CC)c1ccccc1-c1ccc(N2CC[C@@H](NC(=O)Nc3ccc(Cl)cc3F)C2=O)c(F)c1F
Ratio EC50 (Homo sapiens): 350

COc1cc(F)c(-c2c(NC(=O)c3ccc(OC(F)F)cc3)c(=O)n(-c3ccccn3)n2C)c(F)c1
EC50 (fMet-Leu-Phe receptor [9]): > 10 nM | Ratio EC50 (Homo sapiens): > 630

O=C(O)[C@@H]1C2CCC([C@@H]1C(=O)Nc1ccc(Br)cc1)C21CC1 (some centres undefined)
EC50 [6]: 280 nM

COc1ccc(C2(CNC(=O)[C@H](Cc3c[nH]c4ccccc34)NC(=O)Nc3ccc([N+](=O)[O-])cc3)CCCCC2)nc1
EC50 (fMet-Leu-Phe receptor [4]): 4100 nM

H-AKKVFKRLEKLFSKIQNDK-OH
EC50 [10]: 300 nM

COc1cc(C2CCNCC2)nc(-n2c(=O)c(NC(=O)c3ccc(OC(F)F)cc3)c(-c3c(F)cc(OC)cc3F)n2C)c1
EC50 (fMet-Leu-Phe receptor [9]): > 10000 nM

COc1cc(F)c(-c2c(NC(=O)c3ccc(OC(F)F)cc3)c(=O)n(-c3cccc(-n4ccc(C)n4)n3)n2C)c(F)c1
Ratio EC50 (Homo sapiens): 1

COc1ccc([C@H]2CN(Cc3cnn(S(C)(=O)=O)c3)CC[C@@H]2NC(=O)Nc2ccc(Cl)cc2)cc1 (racemic)
EC50 [1]: 0.09 nM

COc1cc(F)c(-c2c(NC(=O)c3ccc(OC(F)F)cc3)c(=O)n(-c3cccc(OC(F)F)c3)n2C)c(F)c1
Ratio EC50 (Homo sapiens): 1

COc1ccc(-n2c(-c3ccccc3)cnc2NC(=O)c2ccc(OC(F)F)cc2)cc1
EC50 (fMet-Leu-Phe receptor [2]): 38 nM | EC50 [3]: 3 nM

Cc1ccc(NC(=O)N[C@@H]2CCCN(c3ccc(-c4ccccc4C(N)=O)cc3)C2=O)cc1
EC50 [1]: < 5 nM

O=C(CN1C(=O)C2C(C1=O)C1CCC2C12CC2)Nc1ccc(Br)cc1 (centres undefined)
EC50 [7]: 120 nM

CCC(Nc1ccc(OC)cc1)C(=O)N/N=C(C)/C=C/c1ccccc1 (centres undefined)
EC50 [3]: 2600 nM

CCCc1cn(-c2cccc(OC)c2)c(=O)n(CC(=O)Nc2ccc(Br)cc2)c1=O
EC50 (fMet-Leu-Phe receptor [4]): 3300 nM | EC50 [5]: 2400 nM

CC(C)c1c(NC(=O)Nc2ccc(Cl)cc2)c(=O)n(-c2ccccc2)n1C
EC50 [6]: 890 nM | EC50 (fMet-Leu-Phe receptor [11]): 350 nM

C[C@H]1CC(c2ccccc2)=NN(CC(=O)Nc2ccc(Br)cc2)C1=O
EC50 (fMet-Leu-Phe receptor [4]): 20000 nM | EC50 [5]: 11000 nM

COc1cccc(-c2csc(=O)n2CC(=O)Nc2ccc(Br)cc2)c1
EC50 (fMet-Leu-Phe receptor [4]; hl-60): 280 nM | EC50 ([5]; hl-60): 230 nM

COC(=O)c1ccc(NC(=O)CSc2nc3cc(OC)ccc3[nH]2)cc1
EC50 (fMet-Leu-Phe receptor [2]): 4700 nM

COc1ccc([C@@H]2CN(CCO)C(=O)[C@H]2NC(=O)Nc2ccc(Cl)cc2)cc1
EC50 [1]: 0.01 nM

O=C(Nc1ccc(Br)nc1)[C@@H]1C2CCC([C@H]1C(=O)OCCC1CCNCC1)C21CC1 (some centres undefined)
EC50 [3]: 0.4 nM

CSCC[C@H](NC=O)C(=O)N[C@@H](CC(C)C)C(=O)N[C@@H](Cc1ccccc1)C(=O)O
EC50 (fMet-Leu-Phe receptor [11]): 23000 nM

COc1ccc(C2(CNC(=O)[C@](C)(Cc3c[nH]c4ccccc34)NC(=O)Nc3ccc([N+](=O)[O-])cc3)CCCCC2)nc1
EC50 (fMet-Leu-Phe receptor [4]): 300 nM

COc1cc(F)c(-n2c(-c3ccccc3)cnc2NC(=O)c2ccc(OC(F)F)cc2)c(F)c1
EC50 (fMet-Leu-Phe receptor [2]): 200 nM | EC50 [3]: 4 nM

N#Cc1ccccc1-c1ccc(N2CC[C@@H](NC(=O)Nc3ccc(Cl)cc3F)C2=O)c(F)c1F
Ratio EC50 (Homo sapiens): 14

Cc1ccc(C2(NC(=O)[C@@H]3C4CCC([C@H]3C(=O)NCCCCN3CCCC3)C43CC3)CC2)cc1 (some centres undefined)
EC50 [3]: 4 nM

CS(=N)(=O)c1ccccc1-c1ccc(N2CC[C@@H](NC(=O)Nc3ccc(Cl)cc3F)C2=O)c(F)c1F (some centres undefined)
Ratio EC50 (Homo sapiens): 82

O=C(Nc1ccc(Cl)cc1F)N[C@@H]1CCN(c2ccc(-c3ccccc3F)c(F)c2F)C1=O
Ratio EC50 (Homo sapiens): 12

COc1cccc(-n2c(=O)c(NC(=O)c3ccc(OC(F)F)cc3)c(-c3c(F)cc(OC)cc3F)n2C)c1
Ratio EC50 (Homo sapiens): 0.6

COc1cc(-n2c(=O)c(NC(=O)c3ccc(OC(F)F)cc3)c(-c3c(F)cc(OC)cc3F)n2C)cc(C(F)(F)F)c1
EC50 (fMet-Leu-Phe receptor [9]): > 10 nM | Ratio EC50 (Homo sapiens): > 1300

COC(=O)c1cccc(-n2c(=O)c(NC(=O)c3ccc(OC(F)F)cc3)c(-c3c(F)cc(OC)cc3F)n2C)c1
Ratio EC50 (Homo sapiens): 1

COc1cc(OC)cc(-n2c(=O)c(NC(=O)c3ccc(OC(F)F)cc3)c(-c3c(F)cc(OC)cc3F)n2C)c1
EC50 (fMet-Leu-Phe receptor [9]): 10 nM | Ratio EC50 (Homo sapiens): 3400

C[C@@H]1CC(c2ccccc2)=NN(CC(=O)Nc2ccc(Br)cc2)C1=O
EC50 (fMet-Leu-Phe receptor [4]): 24000 nM | EC50 [5]: 10000 nM
